For assay [1], the system named is Concanavalin A (ConA)-induced hepatitis. Kind of assay: Concanavalin A (ConA)-induced hepatitis model of autoimmune hepatitis, plasma transaminase (GPT). The class given is in vivo, Male Balb/C mice. Particulars: blood 8 hours after ConA, vehicle 1338 U/L. The protocol: Concanavalin A (ConA)-induced hepatitis is a cell-mediated immunoinflammatory condition that can be induced in mice by a single intravenous injection of ConA. It is typically employed as a model for autoimmune hepatitis. The disease is characterized by a marked increase in the plasma levels of transaminase (GPT) shortly (8-24 hours) after ConA challenge and simultaneous infiltration of the liver with neutrophils, macrophages and T cells followed by apoptosis and necrosis of the hepatocytes. The aim of the present example was to evaluate the effects of a compound of formula (I) (QTX125) on histological and clinical parameters in the model of autoimmune hepatitis induced by ConA. Male Balb/C mice 7-8 weeks old (Envigo, San Pietro al Natisone, Udine, Italy) were kept under standard laboratory conditions (non-specific pathogen free) with free access to food and water and were allowed to adapt at least one week to their environment before commencing the study. ConA (Sigma Chemical, St. Louis, Mo.), was dissolved in sterile phosphate-buffered saline (PBS) and was injected into the tail veins of the animals at the dose of 20 mg/Kg. Three groups of 10 mice were treated at −24 and −1 hours before ConA injection as described in the table below: [table] […] The depth of colour is itself determined by the concentration of analyte in the sample.

Assay [2] deals with experimental autoimmune encephalomyelitis induced by myelin oligodendrocyte glycoprotein (MOG). Kind of assay: MOG-induced experimental autoimmune encephalomyelitis (EAE), paralysis scores. Particulars: variant of Example 2. The class given is in vivo, mice. The method, then:
A variant of the animal model of Example 2 was tested. In particular, experimental autoimmune encephalomyelitis was induced by subcutaneous injection of myelin oligodendrocyte glycoprotein (MOG) instead of PLP.

The subject of assay [3] is PLP-induced EAE. The experiment in a line: PLP-induced experimental autoimmune encephalomyelitis (EAE), clinical grading. In kind it is in vivo, Female SJL mice.

Structures are written as SMILES.

Data on one molecule can be found in patent US20190314334A1, “COMPOUNDS FOR THE TREATMENT OF AUTOIMMUNE DISEASES” (QUIMATRYX, S.L., priority 2016, published 2019).

Take `O=C(NO)c1ccc(CNC(=O)c2[nH]c(-c3ccc(O)cc3)cc2-c2ccoc2)cc1` [QTX125]: the “transaminase (GPT) plasma level (light emission)” value in assay [1] (25 mg/Kg i.p. 24 and 1 hour before ConA (20 mg/Kg i.v.)) stood at 606 U/L; in assay [1] (50 mg/Kg i.p. 24 and 1 hour before ConA (20 mg/Kg i.v.)), 543 U/L. Further, in assay [2], the “paralysis scores (EAE clinical grading)” value was “reduced paralysis scores”. Also, the “EAE clinical grading (mouse condition) with respect to vehicle” value in assay [3] (60 mg/Kg i.p. daily for 35 consecutive days, day 7 to day 42 post immunization) is reported as “substantial improvement of mouse condition”. In addition, the “EAE clinical grading (mouse condition) with respect to dexamethasone” value in assay [3] (60 mg/Kg i.p. daily vs dexamethasone 0.3 mg/Kg, greater part of the treatment, particularly at the end) is “even ameliorated with respect to dexamethasone”.
